# Assay results published in EP4467137A1, “TREATMENT OF FRONTOTEMPORAL DEMENTIA OR FRONTOTEMPORAL LOBAR DEMENTIA” (Universidad Autónoma de Madrid, priority 2023, dated 2024).
# Assays:
# NRF2 = NRF2 induction, luciferase activity in AREc32 cells; type: cell-based; conditions: concentration that doubles the activation of NRF2, read-out: NRF2 CD
# Text: Screening of NRF2 induction was quantified by luciferase activity in AREc32 cells as described in [Herrera-Arozamena, Clara et al. "Tuning melatonin receptor subtype selectivity in oxadiazolone-based analogues: Discovery of QR2 ligands and NRF2 activators with neurogenic properties." European journal of medicinal chemistry vol. 190 (2020): 112090. doi:10.1016/j.ejmech.2020.112090].
# Based on the results obtained (Table 2), Compound 1 was selected for further in vitro and in vivo studies as it was endowed with the best anti-neuroinflammatory activity. Table 2: Comparative in vitro results. Cell viability/toxicity: effect of the compound per se on cell viability of […] cells measured with the MTT method. Anti-neuroinflammatory effect: % Reduction of nitrites in primary rat glial cultures. PAMPA-BBB: In vitro blood-brain barrier permeation assay, permeation rate Pe (10-6 cm.s-1). NRF2, CD (µM): Concentration of compound that doubles de activation of NRF2. ORAC: Oxygen radical absorbance capacity. LOX-5: lipoxygenase-5.
# [1] = Oxygen Radical Absorbance Capacity Assay (ORAC); type: physicochemical; conditions: ORAC > 1.0 is a better ROS scavenger than trolox
# Description: The Oxygen Radical Absorbance Capacity Assay (ORAC) was performed as described [Herrera-Arozamena, Clara et al. "Resveratrol-Based MTDLs to Stimulate Defensive and Regenerative Pathways and Block Early Events in Neurodegenerative Cascades." Journal of medicinal chemistry vol. 65,6 (2022): 4727-4751. doi:10.1021/acs.jmedchem.1c01883].
# Iba-1 = experiment: LPS in vivo model: brain microgliosis by Iba-1 immunofluorescence; design: species or system mouse; conditions: 20 mg·kg^-1 i.p.; 4 and 24 h after LPS
# Description: Immunofluorescence labelling in in vitro and in vivo samples was performed as described in [Luengo, Enrique et al. "Implication of type 4 NADPH oxidase (NOX4) in tauopathy." Redox biology vol. 49 (2022): 102210. doi:10.1016/j.redox.2021.102210 ].
# Example 2.3.1. Treatment with Compound 1 reduces LPS-induced cytokine expression and release in mouse brain. Mice were treated i.p. with a daily dose of 20 mg·kg^-1 of Compound 1 for 4 consecutive days. On the last day, LPS (0.5 mg·kg^-1) was injected i.p. one h after the compound. Thereafter, behavioural, and biochemical outcomes were analysed at different time points.
# Example 2.3.2. Treatment with Compound 1 reduces LPS-induced microgliosis in mouse brain. Microglial cells constitute the immune cells of our brain; therefore, they play a key role in regulating neuroinflammation. Microgliosis was evaluated using Iba-1 as a microglial marker in immunofluorescence experiments 4 h and 24 h after the inflammatory stimuli (LPS).
# [2] = In vivo hTauP301L model: spatial memory tests (T-maze, Object Location test); design: species or system mouse; conditions: 35 days; for OLT discrimination index / T-maze percentage of success: adult mice
# Description: In vivo hTau301L model was induced by stereotaxic injection of AAV-hTauP301L (AAV-hTau) particles as described in [Luengo, Enrique et al. "Implication of type 4 NADPH oxidase (NOX4) in tauopathy." Redox biology vol. 49 (2022): 102210. doi:10.1016/j.redox.2021.102210 ]. Control animals were injected with AAV-GFP. Evaluation of hyperphosphorylated tau in sarkosyl soluble and insoluble fractions; microgliosis; AT8 and AT180 by immunofluorescence; and cognitive test were performed as described previously [Luengo, Enrique et al. "Implication of type 4 NADPH oxidase (NOX4) in tauopathy." Redox biology vol. 49 (2022): 102210. doi:10.1016/j.redox.2021.102210 ].
# Oral administration of Compound 1 at different dosages (20 mg·kg^-1 and 50 mg·kg^-1) was administered embedded in gelatine. The compound was given in a mixture of 10 % gelatine from porcine skin and 10 % sucralose in water, heated in a microwave oven. Before Compound 1 addition, gelatine mixture was left at RT. Afterwards, the compound was added, evenly mixed and plated 1 mL·well^-1 in a P24 plate. Before AAV injection, mice were trained to eat the gelatines by giving them one gelatine (without compound) per day for 4 consecutive days. After AAV injection, mice were treated once a day with control or Compound 1 gelatines for 35 consecutive days. This approach was followed in adult (3-4 months old) and aged (16-18 months old) mice injected with AAV-GFP or AAV-hTauP301L.
# Example 2.5. Compound 1 ameliorates hTauP301L induced FTD and cognitive decline in adult (3-4 months old) mice. FTD was generated in adult male and female C57BL/6J mice (3-4 months old) by bihippocampal injection of AAV-hTau particles containing the P301L mutation. Mice were treated orally once a day with a single dose of 20 or 50 mg/kg of Compound 1 formulated in gelatines the day after stereotaxic delivery of AAVs (GFP or TauP301L, to controls and FTD, respectively). After 35 days treatment, hyperphosphorylated tau levels were evaluated by immunofluorescence and by WB in soluble and insoluble in sarkosyl fractions. Also, behavioural tests were conducted to study the cognition status of the mice.
# Spatial memory was measured using the T-maze (Figure 9A) and the Object localization tests (OLT; Figure 9B).
# Example 2.6. Compound 1 ameliorates hTauP301L induced FTD and cognitive decline in aged (16-18 months old) mouse. To include the aging effect in the FTD model, the previous experiments were replicated in male and female 16-18 months old C57/BL6J mice.
# [3] = aged (16-18 months old) mice, 50 mg/kg oral
smiles,measurement,setting,value
"COc1ccc2c(c1)CC(c1c[nH]c3ccc(OC)cc13)N2 (stereo not drawn) [Compound 1, 5-Methoxy-3-(5-methoxyindolin-2-yl)-1H-indole]",EC (2-fold activation),NRF2,0.56 ± 0.05 µM
same,ORAC (trolox equiv.),[1],2.3 ± 0.3 trolox equiv.
same,mean fluorescence intensity of Iba-1 per cell,Iba-1,restored to saline levels
same,OLT discrimination index,[2]; 20 mg/kg or 50 mg/kg oral,dose-dependent improvement
same,T-maze percentage of success,[2]; 20 mg/kg or 50 mg/kg oral,dose-dependent improvement
same,OLT discrimination index,[2]; 50 mg/kg oral,total recovery
same,T-maze percentage of success,[2]; 50 mg/kg oral,total recovery
same,"spatial memory loss, OLT",[2]; [3],prevented
same,"spatial memory loss, T-maze",[2]; [3],prevented
